Read-outs that look alike come from different tables or passages of the source.
Assays:
Fusarium nivale = experiment: Treatment of rye seeds against Fusarium nivale; type: in vivo; conditions: 100 g/100 kg; about 4 weeks
Procedure: Treatment of rye seeds against Fusarium nivale
Rye seeds with a natural infestation by Fusarium nivale were seeded in earth filled pots and left for germination at about 6° C. Part of the seeds was treated before seeding with the active agents as appears from the subsequent table and part was untreated. After emergence of the seedlings the plants were illuminated with artificial light for 12 hours each day. After about 4 weeks the degree of infestation was determined in percentages. The fungicidal activity was calculated on the basis of the following formula: [formula]
The active agents were used in the form of 20% concentration compositions.

Venturia inaequalis = experiment: Prophylactic leaf treatment of apples in open field test against Venturia inaequalis; type: in vivo; conditions: 3 weeks
Botrytis cinerea [1] = experiment: Inhibition of fungus in a nutrient solution: Botrytis cinerea; type: cell-based; conditions: 6 days at 21-23° C.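 Also: 0 means no fungus growth and higher grades mean more surface covered.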
Ustilago avenae = experiment: Oat seed treatment for Ustilago avenae; type: in vivo; conditions: 10 weeks
Fusarium avenaceum [2] = experiment: Inhibition of fungus in a nutrient solution: Fusarium avenaceum; type: cell-based; conditions: 6 days at 21-23° C.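 Also: 0 means no fungus growth and higher grades mean more surface covered.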
Procedure: Inhibition of fungus in a nutrient solution
20 ml of a nutrient solution of grape juice and water (1:1) were filled into a glass vial of a 100 ml capacity and were mixed with the pulverulent active agents which appear from the subsequent table. Thereafter, the solution was inoculated with conidia (spores) of the test fungi.
After an incubation time of 6 days at 21° to 23° C. the fungus development on the surface of the nutrient solution was evaluated. The test fungi used were the following: Penicillium digitatum, Botrytis cinerea, Alternaria solani, Fusarium avenaceum.
The evaluation was carried out at a scale from 0 to 5 as follows: […]

Pythium ultimum = experiment: Threshold concentration test for use of the compounds against Pythium ultimum (infested soil, garden peas); type: in vivo; set-up: key to root evaluation (1-4): 4: white roots without fungous necrosis; 3: white roots, minor fungous necrosis; 2: brown roots, already more pronounced fungous necrosis; 1: heavy fungous necrosis, roots rotted; conditions: for root evaluation (1-4): 3 weeks; for number of sound peas: 20 grains per dish, 3 weeks at 20-24° C.
Outline: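 Garden pea seeds, 20 per dish, went straight into Pythium ultimum-infested soil into which 20% pulverulent formulations had been uniformly blended. Sound plants counted and roots rated 1–4 after three weeks of hothouse growth at 20–24 °C.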

Ustilago nuda tritici = experiment: Treatment of wheat seeds in open field tests against Ustilago nuda tritici; type: in vivo; conditions: winter wheat; 100 g/100 kg seeds; eight months
Procedure: (§1) Treatment of wheat and barley seeds in open field tests against Ustilago nuda
(§2) Winter wheat seeds which had been infested with the smut cause Ustilago nuda tritici and winter barley seeds infested with Ustilago nuda nuda were treated with the agents listed in the table below and were seeded at seeding time in open fields. As a control untreated seeds were likewise included in the seed. After eight months the affected heads were counted for each test group and their proportion was calculated in order to find the fungicidal activity by the following formula: [formula]
(§3) The active compounds were employed in the form of 20% concentration powder compositions.

Tilletia caries [3] = experiment: Seed treatment in open field tests regarding infestation by Tilletia caries (oats); type: in vivo
Piricularia oryzae = type: in vivo; conditions: 5 days
Alternaria solani = experiment: Inhibition of fungus in a nutrient solution: Alternaria solani; type: cell-based; conditions: 6 days at 21-23° C.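 Also: 0 means no fungus growth and higher grades mean more surface covered.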
[4] = tested on: Helminthosporium gramineum; experiment: Seed treatment in open field tests for infestation by Helminthosporium gramineum (barley); type: in vivo
Procedure: Seed treatment in open field tests for infestation by Helminthosporium gramineum
The active agents were used in the form of pulverulent compositions. After about 8 months in case of winter barley and after about 3 months in case of summer barley the infested plants were counted and the activity was calculated by the formula [formula]

Ustilago nuda nuda = experiment: Treatment of barley seeds in open field tests against Ustilago nuda nuda; type: in vivo; conditions: winter barley; 100 g/100 kg seeds; eight months
Procedure: as §1, §2, §3

Penicillium digitatum = experiment: Inhibition of fungus in a nutrient solution: Penicillium digitatum; type: cell-based; conditions: 6 days at 21-23° C.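 Also: 0 means no fungus growth and higher grades mean more surface covered.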
Fusarium avenaceum [5] = experiment: Threshold concentration test in case of Fusarium avenaceum (infested soil, garden peas); type: in vivo; conditions: for number of sound peas: 20 grains per dish, 18 days at 20-24° C.; for root evaluation (1-4): 18 days
Outline: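 Soil heavily infested with Fusarium avenaceum was mixed uniformly with a 20% powder formulation of active agent, then sown immediately with 20 garden pea seeds ('Wunder von Kelvedon') per dish. After 18 days in a greenhouse at 20° to 24° C., sound plants were counted and roots scored on a 1–4 scale.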

Septoria nodorum = experiment: Treatment of oat seeds against Septoria nodorum; type: in vivo; conditions: 4 weeks
Procedure: Effects of the treatment of oat seeds against Septoria nodorum
They were then seeded on a moist substrate for germination. As a control untreated seeds were likewise seeded. At about 6° C. the seed was incubated in an air-conditioned chamber until after 4 weeks the proportion of diseased seeds could be determined and the activity of the fungicidal compounds was calculated on the basis of the following formula: [formula]
The active agents were applied in the form of 20% concentration pulverulent compositions.

Botrytis cinerea [6] = experiment: Prophylactic leaf treatment of tomato plants against Botrytis cinerea; type: in vivo; conditions: concentration of 0.025 of the active agent (unit not given)
Tilletia caries [7] = experiment: Treatment of oat seeds infested with Tilletia caries (spore germination); type: in vivo
[8] = 20 g active agent per 100 kg, about 5 weeks
[9] = 50 g active agent per 100 kg, about 5 weeks
[10] = concentration of active agent 0.005 (in gram)
[11] = concentration of active agent 0.025 (in gram)
[12] = summer oats, 50 g active agent/100 kg, about 4 months
[13] = concentration of active agent 0.02 (percentages)
[14] = concentration of active agent 0.1 (percentages)
[15] = summer barley, 50 g active agent/100 kg barley, about 3 months
[16] = summer barley, 100 g active agent/100 kg barley, about 3 months
[17] = winter barley, 50 g active agent/100 kg barley, about 8 months
[18] = winter barley, 75 g active agent/100 kg barley, about 8 months
[19] = winter barley, 100 g active agent/100 kg barley, about 8 months
[20] = winter oats, 100 g active agent/100 kg, about 9 months
[21] = summer barley, 25 g active agent/100 kg barley, about 3 months
[22] = winter barley, 25 g active agent/100 kg barley, about 8 months

| Molecule | % activity (Fusarium nivale) | % activity (Helminthosporium gram; [8]) | % activity (Helminthosporium gram; [9]) | % activity (Venturia inaequalis; [10]) | % activity (Venturia inaequalis; [11]) | fungus development on the surface of the nutrient solution (0-5) (Botrytis cinerea [1]; 0.002%) | % activity (Ustilago avenae; 100 g active agent/100 kg) | root evaluation (1-4) (Pythium ultimum; 20 mg/l soil) | number of sound peas (Pythium ultimum; 20 mg/l soil) | root evaluation (1-4) (Pythium ultimum; 40 mg/l soil) | number of sound peas (Pythium ultimum; 40 mg/l soil) | root evaluation (1-4) (Pythium ultimum; 80 mg/l soil) | number of sound peas (Pythium ultimum; 80 mg/l soil) | % activity (Piricularia oryzae; [14]) | % activity [4, 15] | % activity [4, 16] | % activity [4, 17] | % activity [4, 18] | % activity [4, 19] | % activity [4, 21] | other results |
| --- | --- | --- | --- | --- | --- | --- | --- | --- | --- | --- | --- | --- | --- | --- | --- | --- | --- | --- | --- | --- | --- |
| CC(C)CS(=O)(=O)c1nnc(C(N)=O)s1 [5-isobutylsulfonyl-1,3,4-thiadiazole-2-carboxamide] | 99.2% | 60% | 87% | 87% | 95% | 2 (5 to 10% of the surface covered by the fungus turf) | 87% | 1 | 15 | 4 | 18 | 4 | 18 | 90% | 99.5% | 100% | 100% | 100% | 100% | – | fungus development on the surface of the nutrient solution (0-5) (Botrytis cinerea [1]; 0.004%): 1; fungus development on the surface of the nutrient solution (0-5) (Fusarium avenaceum [2]; 0.004%): 0; % activity (Ustilago nuda tritici): 75%; % activity (Tilletia caries [3]; [12]): 99%; % activity (Piricularia oryzae; [13]): 65%; fungus development on the surface of the nutrient solution (0-5) (Alternaria solani; 0.002%): 0; fungus development on the surface of the nutrient solution (0-5) (Alternaria solani; 0.004%): 0; % activity (Ustilago nuda nuda): 79%; fungus development on the surface of the nutrient solution (0-5) (Penicillium digitatum; 0.002%): 1; fungus development on the surface of the nutrient solution (0-5) (Penicillium digitatum; 0.004%): 0 |
| CC(C)S(=O)(=O)c1nnc(C#N)s1 [5-isopropylsulfonyl-1,3,4-thiadiazole-2-carbonitrile] | – | 86% | 97% | 97% | 100% | 1 | 97% | 2 | 18 | 4 | 20 | 4 | 19 | 94% | 99.8% | 100% | – | 99% | 100% | 100% | fungus development on the surface of the nutrient solution (0-5) (Botrytis cinerea [1]; 0.004%): 0; fungus development on the surface of the nutrient solution (0-5) (Fusarium avenaceum [2]; 0.002%): 0; fungus development on the surface of the nutrient solution (0-5) (Fusarium avenaceum [2]; 0.004%): 0; % activity (Ustilago nuda tritici): 70%; % activity (Tilletia caries [3]; [20]): 100%; number of sound peas (Fusarium avenaceum [5]; 25 mg/l soil): 20; root evaluation (1-4) (Fusarium avenaceum [5]; 25 mg/l soil): 4; number of sound peas (Fusarium avenaceum [5]; 50 mg/l soil): 20; root evaluation (1-4) (Fusarium avenaceum [5]; 50 mg/l soil): 4; number of sound peas (Fusarium avenaceum [5]; 100 mg/l soil): 19; root evaluation (1-4) (Fusarium avenaceum [5]; 100 mg/l soil): 4; fungus development on the surface of the nutrient solution (0-5) (Alternaria solani; 0.002%): 0; fungus development on the surface of the nutrient solution (0-5) (Alternaria solani; 0.004%): 0; % activity (Ustilago nuda nuda): 93%; fungus development on the surface of the nutrient solution (0-5) (Penicillium digitatum; 0.002%): 0; fungus development on the surface of the nutrient solution (0-5) (Penicillium digitatum; 0.004%): 0 |
| CS(=O)(=O)c1nnc(C(N)=O)s1 [5-methylsulfonyl-1,3,4-thiadiazole-2-carboxamide] | 99% | 100% | 100% | – | – | – | 84% | 4 | 16 | 4 | 18 | 4 | 20 | 96% | 100% | 100% | 96% | 100% | 100% | 95% | % activity (Helminthosporium gram; 10 g active agent per 100 kg, about 5 weeks): 95%; % activity (Ustilago avenae; 150 g active agent/100 kg): 90%; % activity (Tilletia caries [3]; winter oats, 25 g active agent/100 kg, about 9 months): 100%; % activity (Tilletia caries [3]; winter oats, 50 g active agent/100 kg, about 9 months): 100%; % activity (Tilletia caries [3]; [20]): 100%; % activity (Septoria nodorum; 50 g active agent/100 kg seeds): 91%; % activity [4, 22]: 90% |
| CNC(=O)c1nnc(S(C)(=O)=O)s1 [5-methylsulfonyl-1,3,4-thiadiazole-2-carboxylic acid methylamide] | 100% | 99% | 100% | 90% | 92% | – | 90% | 4 | 20 | 4 | 18 | 4 | 18 | 91% | 100% | 100% | 99.5% | 100% | – | 93% | % activity (Botrytis cinerea [6]): 78%; % activity (Tilletia caries [3]; [12]): 100%; % activity (Piricularia oryzae; [13]): 65%; % activity (Septoria nodorum; 50 g active agent/100 kg seeds): 93%; % activity [4, 22]: 99.5% |
| Methoxyethyl-Hg--silicate [reference compound] | – | – | – | – | – | – | – | – | – | – | – | – | – | – | – | – | – | – | – | – | % activity (Helminthosporium gram; 0.2 g active agent per 100 kg): 63%; % activity (Helminthosporium gram; 0.5 g active agent per 100 kg): 91%; % activity (Helminthosporium gram; 1.0 g active agent per 100 kg): 98%; % activity (Ustilago avenae; 16 g active agent/100 kg): 66%; % activity (Tilletia caries [3]; summer oats, 2.6 g active agent/100 kg, about 4 months): 99%; % activity (Tilletia caries [3]; winter oats, 5.3 g active agent/100 kg, about 9 months): 99%; % activity (Tilletia caries [7]; 1.3 g active agent per 100 kg): 90%; % activity (Tilletia caries [7]; 2.6 g active agent per 100 kg): 100%; % activity (Septoria nodorum; 1.3 g active agent/100 kg seeds): 86%; % activity ([4]; summer barley, 5.2 g active agent/100 kg barley): 99.8%; % activity ([4]; summer barley, 10.4 g active agent/100 kg barley): 100%; % activity ([4]; winter barley, 2.6 g active agent/100 kg barley): 99.4%; % activity ([4]; winter barley, 5.2 g active agent/100 kg barley): 100% |
